{"source": "patent US12648946B2", "about": "“Combination of antibody-pyrrolobenzodiazepine derivative conjugate and PARP inhibitor” (DAIICHI SANKYO COMPANY, LIMITED, priority 2019, dated 2026)", "system": "human pancreatic cancer cell line CFPAC-1", "test": "Antitumor test (1), subcutaneous xenograft", "format": "in vivo, mouse", "conditions": "single administration, talazoparib 0.8 mg/kg oral for 5 days from Day 0, Day 35, CFPAC-1", "method": "Mouse: Five- to six-week-old female BALB/c nude mice (Charles River Laboratories Japan, Inc.) were subjected to experiment. Assay and calculation formula: In all of the studies, the major axis and minor axis of a tumor were measured twice a week by using an electronic digital caliper ([…] Corp.), and the tumor volume (mm^3) was calculated. The calculation formula is as shown below. [formula] Each of the anti-CLDN6 antibody-drug conjugate ADC1, the anti-HER2 antibody-drug conjugate ADC2, and the anti-TROP2 antibody-drug conjugate ADC3 was diluted with ABS buffer (10 mM acetate buffer (pH 5.5), 5% sorbitol), and a liquid volume of 10 mL/kg was intravenously administered into the tail vein. […] LLC)/Dulbecco's Phosphate-Buffered Saline, and then a liquid volume of 10 mL/kg was intraperitoneally administered. […] LLC)/Dulbecco's Phosphate-Buffered Saline, and then a liquid volume of 10 mL/kg was orally administered. Niraparib was dissolved in DMSO, diluted with 0.5% methylcellulose, and then a liquid volume of 10 mL/kg was orally administered. The described method is common to Examples 34 to 37. […]", "data": [{"smiles": "Cn1ncnc1[C@H]1c2n[nH]c(=O)c3cc(F)cc(c23)N[C@@H]1c1ccc(F)cc1", "note": "[talazoparib]", "values": [{"measurement": "tumor growth inhibition (TGI)", "result": 17, "unit": "%"}]}]}
